Laboratory results reported in patent US7741295B2, “Sir2 products and activities” (Albert Einstein College of Medicine of Yeshiva University, priority 2001, dated 2010).

Tests used:
[1] = Interconversion rates of 2′- and 3′-AADPR (HPLC, NMR); assay type: physicochemical
Protocol: Interconversion rates of 2′- and 3′-AADPR. Sample of both 2′- and 3′-AADPR were incubated at 15° C. and analyzed by HPLC at 40 min intervals (C-18 column; 50 mM ammonium acetate pH 5.0). The percent of the 3′-isomer at a given time was fit to the equation 3′-AADPR (%)=Pa exp (−kt)+Pf where Pa+Pf=P0; where Pa is the percent of the 3′-isomer above equilibrium at time=0, t is time and k is the first order rate constant for the conversion. Pf is the percent at equilibrium and P0 is the initial percent. HPLC and NMR analysis established the 2′- and 3′-isomers concentration as a function of time. NMR was in 10% d4-methanol/90% D2O at 0° C. or in 100% D2O at 20° C.

[2] = biological target: T1, Sir2Af2 (Archaeoglobus fulgidus, UniProt O30124); assay: Low temperature ^1H NMR analysis of Sir2p reaction products (order of product formation); assay type: biochemical; conditions: 5° C.
T1 construct: made in house
T1 sequence (O30124 1-253): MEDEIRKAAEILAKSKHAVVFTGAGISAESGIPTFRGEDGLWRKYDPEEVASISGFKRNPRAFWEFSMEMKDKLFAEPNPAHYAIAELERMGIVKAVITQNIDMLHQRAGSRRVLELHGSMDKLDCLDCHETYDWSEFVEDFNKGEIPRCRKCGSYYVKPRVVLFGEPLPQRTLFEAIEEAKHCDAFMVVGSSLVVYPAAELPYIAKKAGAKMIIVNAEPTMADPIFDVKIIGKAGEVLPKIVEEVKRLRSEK
Protocol: Low temperature studies of Sir2Af2 to identify order of product production. Sir2Af2 catalyzed deacetylation reactions were performed at 8° C. to determine the order of product formation. A 200 μL solution containing 150 μM NAD^+, 300 μM peptide JB12, in 40 mM potassium phosphate pH 6.2 were cooled to 8° C. and then 1 μL of 9 μg/μL of Sir2Af2 was added to initiate the reaction. Reactions were assayed by HPLC using 0.5% TFA as an eluant. Peals at 17 and 20 min were used to quantitate 3′- and 2′-AADPR at 30 minute intervals.
Low temperature ^1H NMR analysis of Sir2p reaction products. A solution of 1.7 mg Sir2Af2 enzyme in 95% D2O, 50 mM potassium phosphate pH 6.3 was concentrated to 550 μL using centrifugation filtration. This sample was mixed with 2 mg JB12 peptide and cooled to 5° C. in a 600 MHz NMR spectrometer. Spectra were obtained and 280 μL of ice-chilled 22 mM NAD^+ solution in 50 mM potassium phosphate pH 6.3 in 99% D2O was added to initiate the reaction. ^1H NMR 1D spectra were obtained at intervals over 18 hr at 5° C.

[3] = biological target: T1, Sir2Af2; assay: Ara-F-NAD^+ as NAD^+ analogue: substrate and nicotinamide exchange reactions with Sir2Af2; assay type: biochemical; conditions: for [Carbonyl-^14C]-nicotinamide exchange catalysed by Sir2Af2: 5 mM nicotinamide, 300 μM peptide; for Substrate in Sir2Af2 deacetylation of peptide JB12: ara-F-NAD^+ 50 μM, JB12 300 μM, pH 6.25, C-18 HPLC
Protocol: (§1) Ara-F-NAD^+ as an NAD^+ analogue. Ara-F NAD^+ is an inhibitor of ADP-ribosyl-transferase and was used to evaluate Sir2Af2. Ara-F-NAD^+ was synthesized as previously reported^44. Deacetylation of peptide JB12 (300 μM) by Sir2Af2 (10 μg) in the presence of ara-F-NAD^+ (50 μM) was tested in 200 μL of 40 mM potassium phosphate pH 6.25. No change of ara-F-NAD^+ was detected by C-18 reverse phase HPLC. […] A control run with […] and NAD^+ established [Carbonyl-^14C]-nicotinamide exchange into NAD^+, confirming the Sir2 base-exchange reaction. […] Inhibition of Sir2Af2 by ara-F-NAD^+ was evaluated by incubation of Sir2Af2 enzyme (7 μM) and ara-F-NAD^+ (20 μM) in the presence of 300 μM JB12 peptide in potassium phosphate pH 6.25 buffer. A reaction mixture lacking ara-F NAD^+ was the control. A positive control used the same reaction components but 500 nM CD38 in the presence of 5 μM ara-F-NAD^+. Reactions were initiated after 6 h by adding 150 μM NAD^+. Reactions were evaluated for catalytic turnover using HPLC. Catalytic turnover of Sir2Af2 was not inhibited by ara-F-NAD^+ under these reaction conditions.

[4] = biological target: T1, Sir2Af2; assay: Inhibition of Sir2Af2 catalytic turnover by ara-F-NAD^+ (HPLC); assay type: biochemical; conditions: Sir2Af2 7 μM, ara-F-NAD^+ 20 μM, 300 μM JB12, 6 h then 150 μM NAD^+
Protocol: as §1

[5] = tested on: CD38; assay: CD38 controls with ara-F-NAD^+ (base exchange, inhibition); assay type: biochemical, human
Protocol: as §1

[6] = cited from earlier work
[7] = tested on: ADP-ribosyltransfer enzymes; conditions: cited from earlier work
[8] = tested on: Sir2; conditions: cited from earlier work
[9] = Stability of authentic β-1′-AADPR (elimination as a Sir2p product); assay type: physicochemical; conditions: 100 μM, 40 mM phosphate buffer pH 6.25, one hr at 55° C., HPLC
Description: Elimination of β-1′-AADPR as a Sir2p product.

[10] = tested on: esterase activity; assay: Breakdown of AADPR by esterase activity in hamster ovary cell extract; assay type: in vitro ADME; conditions: hamster ovary cells extract
Description: (§2) The use of AADPR or radiolabeled AADPR is a strategy to characterize and discover the esterases (or other enzymes) that break down or utilize AADPR in vivo. Specifically, AADPR breakdown can be measured by HPLC or TLC assay. When radiolabels are used, amounts of AADPR necessary for this purpose can be as small as 250 pmoles.

[11] = tested on: esterase activity; assay: Breakdown of AADPR by esterase activity in rat liver extract; assay type: in vitro ADME
Description: as §2

[12] = biological target: T2, Sir2Af1 (Archaeoglobus fulgidus, UniProt O28597); conditions: cited from earlier work
T2 construct: made in house
T2 sequence (O28597 1-245): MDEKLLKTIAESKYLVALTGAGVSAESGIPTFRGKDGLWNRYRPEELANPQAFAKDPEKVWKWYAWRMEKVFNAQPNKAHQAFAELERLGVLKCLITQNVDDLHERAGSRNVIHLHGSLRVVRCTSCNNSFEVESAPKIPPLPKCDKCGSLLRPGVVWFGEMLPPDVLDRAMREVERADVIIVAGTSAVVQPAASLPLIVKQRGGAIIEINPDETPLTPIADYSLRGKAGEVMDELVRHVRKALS

[13] = tested on: AfSir2; assay: Inhibition of AfSir2 by ADPR; assay type: biochemical, Archaeoglobus fulgidus

**Q.** With `CC(=O)O[C@H]1C(O)O[C@H](COP(=O)(O)OP(=O)(O)OC[C@H]2O[C@@H](n3cnc4c(N)ncnc43)[C@H](O)[C@@H]2O)[C@H]1O` (stereo partly drawn) [2′-AADPR, 2′-O-acetyl-ADP-ribose] as the molecule, how does the “rate of chemical exchange of the acetyl group” value ([1]; 15° C.) read?
**A.** The value was 0.45 h⁻¹.

**Q.** And the “α/β anomeric equilibrium rate” value ([1]; NMR)?
**A.** The value was over 50 s⁻¹.

**Q.** What about the “calculated value for k3′ to 2′” value ([1]; calculated from K and the measured rate constant, 15° C.) of the same molecule?
**A.** Its value is 0.45 h⁻¹.

**Q.** And the “time to establish 2′/3′ equilibrium” value ([1]; physiological temperatures of 37° C.)?
**A.** Its value is at most 60 min.

**Q.** And the “ratio kcat/k2′-3′” value [2]?
**A.** The value was 20.

**Q.** Which results are given for `CC(=O)O[C@@H]1[C@@H](COP(=O)(O)OP(=O)(O)OC[C@H]2O[C@@H](n3cnc4c(N)ncnc43)[C@H](O)[C@@H]2O)OC(O)[C@@H]1O` (stereo partly drawn) [3′-AADPR, 3′-O-acetyl-ADP-ribose]?
**A.** rate of chemical exchange of the acetyl group ([1]; 15° C.): 0.32 h⁻¹; equilibrium constant K ([1]; 15° C., HPLC peak integrations of the 2′- and 3′-isomers): 1.4; first-order rate constant for acetyl migration k3′ to 2′ ([1]; fit to exponential decay curve, 15° C.): 0.32 h⁻¹

**Q.** Which “[Carbonyl-^14C]-nicotinamide exchange catalysed by Sir2Af2” value [3] does the source give for `NC(=O)c1ccc[n+]([C@@H]2O[C@H](COP(=O)([O-])OP(=O)(O)OC[C@H]3O[C@@H](n4cnc5c(N)ncnc54)[C@H](O)[C@@H]3O)[C@@H](O)[C@H]2F)c1` [ara-F-NAD^+] here?
**A.** The value was “no radioactivity incorporated”.

**Q.** What about the “[Carbonyl-^14C]-nicotinamide exchange catalysed by Sir2Af2” value ([3]; listed as Ara-F NAD^+) of the same molecule?
**A.** Its value is “did not serve as a substrate”.

**Q.** And the “Substrate in Sir2Af2 deacetylation of peptide JB12” value [3]?
**A.** Its value is “No change”.

**Q.** And the “Substrate in Sir2Af2 deacetylation of peptide JB12” value ([3]; listed as Ara-F NAD^+)?
**A.** Its value is “did not serve as a substrate”.

**Q.** What about the “Inhibition of Sir2Af2 catalytic turnover” value [4] of the same molecule?
**A.** The value was “not inhibited”.

**Q.** And the “Inhibition of Sir2Af2 catalytic turnover” value ([4]; listed as Ara-F-NAD^+)?
**A.** Its value is “did not inactivate”.

**Q.** What about the “Activity (inactivation) on CD38 positive control” value ([5]; 500 nM CD38, 5 μM ara-F-NAD^+) of the same molecule?
**A.** Its value is “activity on the control using CD38”.

**Q.** What about the “Base exchange with [^14C]nicotinamide catalysed by CD38” value ([5]; control) of the same molecule?
**A.** The value was “full base exchange”.

**Q.** What about the “Stability relative to NAD^+” value [6] of the same molecule?
**A.** Its value is “roughly 50 times”.

**Q.** What about the “Inhibitor of ADP-ribosyltransfer enzymes” value [7] of the same molecule?
**A.** Its value is “powerful inhibitor”.

**Q.** For `NC(=O)c1cccnc1` [nicotinamide], which “Inhibition of Sir2” value [8] is on record?
**A.** The value was “inhibits the enzyme”.

**Q.** Which “Change of β-1′-AADPR and production of 2′- or 3′-AADPR on incubation” value [9] does the source give for `CC(=O)O[C@@H]1O[C@H](COP(=O)(O)OP(=O)(O)OC[C@H]2O[C@@H](n3cnc4c(N)ncnc43)[C@H](O)[C@@H]2O)[C@@H](O)[C@H]1O` [β-1′-AADPR] here?
**A.** The value was “no change”.

**Q.** For “acetyl adenosine diphosphate ribose [AADPR]”, which “Breakdown of AADPR to ADPR and acetate” value [10] is on record?
**A.** Its value is “high esterase activity exists that can breakdown AADPR”.

**Q.** And the “Breakdown of AADPR to ADPR and acetate” value [11]?
**A.** The value was “high esterase activity exists that can breakdown AADPR”.

**Q.** For “acetylated BSA: acetylated BSA, a non physiologic substrate”, which “Substrate of Sir2Af1 as reported in the literature” value [12] is on record?
**A.** Its value is “is a substrate”.

**Q.** With adenosine diphosphate ribose [ADPR] as the molecule, how does the “Inhibition of AfSir2” value [13] read?
**A.** Its value is “potent inhibitor”.
